Data published in patent publication US10858413B2, “Immunoglobulins and uses thereof” (Janssen Pharmaceutica NV, priority 2016, dated 2020).
Marks after values point to notes of the source that are not given here.

Assays:
[1] = molecular target: T1, PTHR1 (Homo sapiens, UniProt Q03431); assay: class B GPCR cAMP assay, PTHR1; assay type: cell-based
T1 construct: host or cells: cells of an unnamed vendor
T1 sequence (Q03431 27-593): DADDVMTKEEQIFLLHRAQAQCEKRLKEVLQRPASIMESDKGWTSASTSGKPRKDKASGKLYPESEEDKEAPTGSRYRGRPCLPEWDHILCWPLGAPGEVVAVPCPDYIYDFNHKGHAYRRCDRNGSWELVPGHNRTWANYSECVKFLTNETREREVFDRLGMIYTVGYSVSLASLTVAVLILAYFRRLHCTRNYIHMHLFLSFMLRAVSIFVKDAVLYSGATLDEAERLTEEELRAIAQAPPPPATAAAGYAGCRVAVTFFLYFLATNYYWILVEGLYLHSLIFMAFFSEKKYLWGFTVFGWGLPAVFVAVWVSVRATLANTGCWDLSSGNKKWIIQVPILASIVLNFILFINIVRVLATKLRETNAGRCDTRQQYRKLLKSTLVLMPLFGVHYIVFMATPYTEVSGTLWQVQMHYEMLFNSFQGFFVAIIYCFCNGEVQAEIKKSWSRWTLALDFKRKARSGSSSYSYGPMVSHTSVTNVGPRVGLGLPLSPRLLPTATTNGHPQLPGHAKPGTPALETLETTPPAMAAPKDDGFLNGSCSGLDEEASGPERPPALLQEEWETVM
Protocol: The assays were performed according to the vendor's standard operating procedures with a positive control included for each receptor tested.

[2] = system: DIO mice; assay: OGTT (blood glucose, insulin) in DIO mice after 8 days of treatment; assay type: in vivo, mouse; settings: 0.3 nmol/kg s.c. every day
Protocol: (§1) Compound 1 was evaluated for its ability to reduce foot intake and body weight and improve glucose homeostasis on repeat dosing in male DIO C57B1/6 mice over a period of 8 days. Male DIO C57BL/6N mice (20 weeks of age, 14 weeks on high fat diet) were obtained from Taconic Laboratory. […] Animals were acclimated to the facility for at least one week prior to the start of the experiment.
(§2) The day prior to dosing, mice were grouped based on individual body weights. At 3:00-4:00 pm for each of the next 8 days, animals and food intake were weighed. […] After 8 days, mice are fasted for 5 hours and then given a 2 g/kg bolus of glucose orally at t=0. At t=0, 30, 60, 90, and 120 minutes post glucose challenge blood glucose is measured and at t=0, 30, and 90 minutes blood in drawn to measure plasma insulin. […] All data are presented as the mean±SEM (FIGS. 8 and 9, and Tables 5-8).

[3] = system: DIO mice; assay: Fed blood glucose in DIO mice after 8 days of treatment; assay type: in vivo, mouse; settings: 0.3 nmol/kg s.c. every day
Protocol: as §1, §2

[4] = system: DIO mice; assay: Repeat dosing in DIO mice: daily food intake; assay type: in vivo, mouse; settings: 0.3 nmol/kg s.c. daily
Protocol: (§3) To control for the dosing frequency, all animals were dosed daily. Dosing frequency was determined on the basis of DIO mouse PK data for compound 2 and dulaglutide. Animals in the dulaglutide group received this drug daily. The vehicle-treated animals received vehicle daily. […] The day prior to initiating of dosing, animals were weighed and grouped by body weight. […].
(§4) Beginning 24-hr after the first dosing, three groups of mice were pair-fed (PF) to the 1.0, 2.0, or 4.0 nmol/kg compound 2-treated animals. The amount of food in the hopper of pair-fed mice was adjusted to match the average food consumed in the previous 24 hours by mice in the compound treatment group to which they were being matched. All PF groups were dosed daily with vehicle. On the ninth day (or Day 10 for the pair-fed groups), animals were fasted for 6 hours and body weight and fasting glucose were measured. Blood was collected for measurements of insulin, FGF21 and plasma lipids. The food intake, body weight, body composition, fasting glucose, fasting insulin, fasting FGF21, and fasting plasma lipid data are shown in tables 20-26.

[5] = Repeat dosing in DIO mice: body weight change and body composition; assay type: in vivo, mouse; settings: 0.3 nmol/kg s.c. daily
Protocol: as §3, §4

[6] = system: DIO mice; assay: Repeat dosing in DIO mice: fasting glucose, insulin, FGF21, plasma lipids; assay type: in vivo, mouse; settings: after repeated dosing, 0.3 nmol/kg s.c. daily
Protocol: as §3, §4

[7] = system: DIO mice; assay: Single-dose efficacy in DIO mice: food intake; settings: single s.c. dose 0.3 nmol/kg
[8] = system: DIO mice; assay: Single-dose efficacy in DIO mice: plasma FGF21; settings: 26 hours after treatment, single s.c. dose 0.3 nmol/kg
[9] = Single-dose efficacy in DIO mice: body weight change; settings: single s.c. dose 0.3 nmol/kg, 18 hours after treatment, relative to day 0
[10] = system: DIO mice; assay: Single-dose efficacy in DIO mice: fasting glucose, IPGTT glucose and insulin; settings: single s.c. dose 0.3 nmol/kg

CC[C@H](C)[C@H](NC(=O)[C@H](CCC(=O)O)NC(=O)[C@H](CO)NC(=O)[C@@H](NC(=O)[C@@H](N)CO)C(C)C)C(=O)N[C@@H](CCC(N)=O)C(=O)N[C@@H](CC(C)C)C(=O)N[C@@H](CCSC)C(=O)N[C@@H](Cc1cnc[nH]1)C(=O)N[C@@H](CC(N)=O)C(=O)N[C@@H](CC(C)C)C(=O)NCC(=O)N[C@@H](CCCCN)C(=O)N[C@@H](Cc1cnc[nH]1)C(=O)N[C@@H](CC(C)C)C(=O)N[C@@H](CC(N)=O)C(=O)N[C@@H](CO)C(=O)N[C@@H](CCSC)C(=O)N[C@@H](CCC(=O)O)C(=O)N[C@@H](CCCNC(=N)N)C(=O)N[C@H](C(=O)N[C@@H](CCC(=O)O)C(=O)N[C@@H](Cc1c[nH]c2ccccc12)C(=O)N[C@@H](CC(C)C)C(=O)N[C@@H](CCCNC(=N)N)C(=O)N[C@@H](CCCCN)C(=O)N[C@@H](CCCCN)C(=O)N[C@@H](CC(C)C)C(=O)N[C@@H](CCC(N)=O)C(=O)N[C@@H](CC(=O)O)C(=O)N[C@H](C(=O)N[C@@H](Cc1cnc[nH]1)C(=O)N[C@@H](CC(N)=O)C(=O)N[C@@H](Cc1ccccc1)C(=O)O)C(C)C)C(C)C [PTH(1-34)]
Curve Bottom [1]: −5.9767 | Curve Top [1]: 101 | Hill [1]: 1.8672

Dulaglutide: GLP1R agonist (long-acting GLP-1 receptor agonist) [reference compound]
blood glucose Delta AUC (OGTT) [2]: 6668 ± 1846 mg/dl/120 min | blood glucose Total AUC (OGTT) [2]: 15758 ± 1054 mg/dl/120 min | blood glucose during an OGTT ([2]; 0 min after glucose challenge): 76 ± 9 mg/dL | insulin during an OGTT ([2]; 0 min after glucose challenge): 0.6 ± 0.1 ng/mL | blood glucose during an OGTT ([2]; 30 min after glucose challenge): 151 ± 14 mg/dL | insulin during an OGTT ([2]; 30 min after glucose challenge): 1.7 ± 0.2 ng/mL | blood glucose during an OGTT ([2]; 60 min after glucose challenge): 174 ± 17 mg/dL | blood glucose during an OGTT ([2]; 90 min after glucose challenge): 104 ± 10 mg/dL | insulin during an OGTT ([2]; 90 min after glucose challenge): 0.7 ± 0.2 ng/mL | blood glucose during an OGTT ([2]; 120 min after glucose challenge): 119 ± 9 mg/dL | fed Blood Glucose [3]: 114 ± 13 mg/dL | daily food intake ([4]; day 0): 3.1 ± 0.2 grams | daily food intake ([4]; day 1): 1.5 ± 0.2 grams | daily food intake ([4]; day 2): 1.3 ± 0.2 grams | daily food intake ([4]; day 3): 1.7 ± 0.3 grams | daily food intake ([4]; day 4): 1.9 ± 0.2 grams | daily food intake ([4]; day 5): 2.1 ± 0.2 grams | daily food intake ([4]; day 6): 2.2 ± 0.2 grams | daily food intake ([4]; day 7): 2.3 ± 0.2 grams | daily food intake ([4]; day 8): 2.9 ± 0.4 grams | daily food intake ([4]; day 9): 2.5 ± 0.2 grams | percent body weight change ([5]; day 0, relative to day 0): 0.0% | percent body weight change ([5]; day 1, relative to day 0): −3.7 ± 0.3% | percent body weight change ([5]; day 2, relative to day 0): −6.2 ± 0.6% | percent body weight change ([5]; day 3, relative to day 0): −7.8 ± 0.8% | percent body weight change ([5]; day 4, relative to day 0): −9.2 ± 0.8% | percent body weight change ([5]; day 5, relative to day 0): −10.1 ± 0.8% | percent body weight change ([5]; day 6, relative to day 0): −10.2 ± 0.8% | percent body weight change ([5]; day 7, relative to day 0): −10.7 ± 1.0% | percent body weight change ([5]; day 8, relative to day 0): −11.1 ± 0.9% | percent body weight change ([5]; day 9, relative to day 0): −13.1 ± 1.1% | body composition: Fat Mass ([5]; after repeated dosing): 7.6 ± 1.1 g | body composition: Fat, % of Body Weight ([5]; after repeated dosing): 22.8 ± 1.2% | body composition: Lean Mass ([5]; after repeated dosing): 22.1 ± 0.3 g | body composition: Lean, % of Body Weight ([5]; after repeated dosing): 61.0 ± 1.7% | 6 hour fasting Blood Glucose [6]: 123 ± 5 mg/dL | 6 hour fasting Plasma Insulin [6]: 1.4 ± 0.2 ng/mL | 6 hour fasting plasma FGF21 [6]: 0.5 ± 0.1 ng/mL | plasma Free Fatty Acids [6]: 73.2 ± 12.0 µmol/L | plasma Free Glycerol [6]: 0.5 ± 0.1 mmol/L | plasma Total cholesterol [6]: 146.1 ± 3.3 mg/dL | plasma Tri-glycerides [6]: 24.1 ± 2.3 mg/dL | food intake ([7]; 18 hours post-dose): 1.5 ± 0.1*^ grams | food intake ([7]; 24 hours pre-dose): 3.1 ± 0.1 grams | Plasma FGF21 [8]: 0.8 ± 0.2 ng/mL | Weight Change (%) [9]: −4.1 ± 0.3 % | 6 hour fasting Blood Glucose ([10]; 24 hours after treatment): 140 ± 7 mg/dL | Blood Glucose Net AUC during an IPGTT ([10]; 24 hours after treatment): 8471 ± 1204 | blood glucose during an IPGTT ([10]; 24 hours after treatment, 0 min): 140 ± 7 mg/dL | blood glucose during an IPGTT ([10]; 24 hours after treatment, 10 min): 264 ± 18 mg/dL | blood glucose during an IPGTT ([10]; 24 hours after treatment, 30 min): 267 ± 22 mg/dL | blood glucose during an IPGTT ([10]; 24 hours after treatment, 60 min): 228 ± 12 mg/dL | blood glucose during an IPGTT ([10]; 24 hours after treatment, 90 min): 193 ± 9 mg/dL | Plasma Insulin ([10]; 10 minutes post-glucose (IPGTT)): 1.7 ± 0.2 ng/mL | Plasma Insulin ([10]; Pre-glucose (24 hours after treatment)): 1.6 ± 0.2 ng/mL
